From the kinase profiling compilation of Christmann-Franck et al. (2016)

Columns and labels:
Experiment in all cases: KINOMEscan competition binding
Conditions in all cases: compound 10.0 µM
AAK1 (human) = AAK1 (human) (UniProt Q2M2I8)
ACVR2B (human) = ACVR2B (human) (UniProt Q13705)
BLK (human) = BLK (human) (UniProt P51451)
BMP2K (human) = BMP2K (human) (UniProt Q9NSY1)
BMPR1B (human) = BMPR1B (human) (UniProt O00238)
BRSK2 (human) = BRSK2 (human) (UniProt Q8IWQ3)
CAMK1G (human) = CAMK1G (human) (UniProt Q96NX5)
CDC42BPG (human) = CDC42BPG (human) (UniProt Q6DT37)
CDK16 (human) = CDK16 (human) (UniProt Q00536)
CDK2 (human) = CDK2 (human) (UniProt P24941)
CDK7 (human) = CDK7 (human) (UniProt P50613)
CIT (human) = CIT (human) (UniProt O14578)
CLK4 (human) = CLK4 (human) (UniProt Q9HAZ1)
Chain of CLK4 (human) (Q9HAZ1 whole entry, looked up): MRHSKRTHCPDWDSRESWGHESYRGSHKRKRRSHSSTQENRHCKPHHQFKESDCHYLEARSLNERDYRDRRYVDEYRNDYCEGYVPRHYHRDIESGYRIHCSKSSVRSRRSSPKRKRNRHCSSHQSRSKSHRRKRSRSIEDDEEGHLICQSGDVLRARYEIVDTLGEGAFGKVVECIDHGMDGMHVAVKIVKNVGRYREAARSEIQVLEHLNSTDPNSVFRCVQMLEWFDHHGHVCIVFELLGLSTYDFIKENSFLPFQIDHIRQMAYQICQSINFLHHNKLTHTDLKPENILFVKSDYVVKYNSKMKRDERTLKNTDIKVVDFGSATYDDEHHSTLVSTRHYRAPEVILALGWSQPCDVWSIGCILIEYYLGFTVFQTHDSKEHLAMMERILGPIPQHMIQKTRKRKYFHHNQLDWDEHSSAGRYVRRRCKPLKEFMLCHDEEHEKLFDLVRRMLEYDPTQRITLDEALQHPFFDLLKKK

DCLK3 (human) = DCLK3 (human) (UniProt Q9C098)
FGFR3 (human) = FGFR3 (human) (UniProt P22607)
FRK (human) = FRK (human) (UniProt P42685)
ITK (human) = ITK (human) (UniProt Q08881)
LATS2 (human) = LATS2 (human) (UniProt Q9NRM7)
Chain of LATS2 (human) (Q9NRM7 whole entry, looked up): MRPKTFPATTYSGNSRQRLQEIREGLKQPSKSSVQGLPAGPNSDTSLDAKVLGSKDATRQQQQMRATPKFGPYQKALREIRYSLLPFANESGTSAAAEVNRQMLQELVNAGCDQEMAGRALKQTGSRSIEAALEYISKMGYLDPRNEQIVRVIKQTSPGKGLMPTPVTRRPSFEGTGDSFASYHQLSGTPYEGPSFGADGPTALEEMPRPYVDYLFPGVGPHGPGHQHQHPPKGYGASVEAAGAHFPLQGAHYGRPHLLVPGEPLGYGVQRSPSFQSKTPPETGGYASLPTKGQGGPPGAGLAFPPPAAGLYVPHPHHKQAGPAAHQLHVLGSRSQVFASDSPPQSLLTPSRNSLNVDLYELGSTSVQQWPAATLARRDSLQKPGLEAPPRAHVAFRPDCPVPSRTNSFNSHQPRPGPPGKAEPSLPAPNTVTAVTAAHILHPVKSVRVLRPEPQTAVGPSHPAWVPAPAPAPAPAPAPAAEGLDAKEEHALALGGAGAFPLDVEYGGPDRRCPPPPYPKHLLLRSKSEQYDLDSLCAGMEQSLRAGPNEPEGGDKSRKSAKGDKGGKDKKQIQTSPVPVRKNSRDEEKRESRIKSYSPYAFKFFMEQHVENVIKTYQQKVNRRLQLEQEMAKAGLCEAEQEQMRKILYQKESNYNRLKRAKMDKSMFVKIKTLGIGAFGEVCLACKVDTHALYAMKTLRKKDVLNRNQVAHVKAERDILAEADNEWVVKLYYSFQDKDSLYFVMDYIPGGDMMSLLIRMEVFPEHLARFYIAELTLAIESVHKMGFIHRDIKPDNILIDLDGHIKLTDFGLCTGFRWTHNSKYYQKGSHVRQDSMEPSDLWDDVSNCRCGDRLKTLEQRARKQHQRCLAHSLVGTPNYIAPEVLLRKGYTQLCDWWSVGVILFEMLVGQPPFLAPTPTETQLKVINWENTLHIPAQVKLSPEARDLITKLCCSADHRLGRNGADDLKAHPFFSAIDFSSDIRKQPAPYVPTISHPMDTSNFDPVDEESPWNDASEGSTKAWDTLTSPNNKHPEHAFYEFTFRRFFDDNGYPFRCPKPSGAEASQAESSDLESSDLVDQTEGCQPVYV

LCK (human) = LCK (human) (UniProt P06239)
MAP4K3 (human) = MAP4K3 (human) (UniProt Q8IVH8)
MAPK3 (human) = MAPK3 (human) (UniProt P27361)
MAPK8 (human) = MAPK8 (human) (UniProt P45983)
MAPKAPK2 (human) = MAPKAPK2 (human) (UniProt P49137)
MINK1 (human) = MINK1 (human) (UniProt Q8N4C8)
MLTK (human) = MLTK (human) (UniProt Q9NYL2)
MUSK (human) = MUSK (human) (UniProt O15146)
Chain of MUSK (human) (O15146 whole entry, looked up): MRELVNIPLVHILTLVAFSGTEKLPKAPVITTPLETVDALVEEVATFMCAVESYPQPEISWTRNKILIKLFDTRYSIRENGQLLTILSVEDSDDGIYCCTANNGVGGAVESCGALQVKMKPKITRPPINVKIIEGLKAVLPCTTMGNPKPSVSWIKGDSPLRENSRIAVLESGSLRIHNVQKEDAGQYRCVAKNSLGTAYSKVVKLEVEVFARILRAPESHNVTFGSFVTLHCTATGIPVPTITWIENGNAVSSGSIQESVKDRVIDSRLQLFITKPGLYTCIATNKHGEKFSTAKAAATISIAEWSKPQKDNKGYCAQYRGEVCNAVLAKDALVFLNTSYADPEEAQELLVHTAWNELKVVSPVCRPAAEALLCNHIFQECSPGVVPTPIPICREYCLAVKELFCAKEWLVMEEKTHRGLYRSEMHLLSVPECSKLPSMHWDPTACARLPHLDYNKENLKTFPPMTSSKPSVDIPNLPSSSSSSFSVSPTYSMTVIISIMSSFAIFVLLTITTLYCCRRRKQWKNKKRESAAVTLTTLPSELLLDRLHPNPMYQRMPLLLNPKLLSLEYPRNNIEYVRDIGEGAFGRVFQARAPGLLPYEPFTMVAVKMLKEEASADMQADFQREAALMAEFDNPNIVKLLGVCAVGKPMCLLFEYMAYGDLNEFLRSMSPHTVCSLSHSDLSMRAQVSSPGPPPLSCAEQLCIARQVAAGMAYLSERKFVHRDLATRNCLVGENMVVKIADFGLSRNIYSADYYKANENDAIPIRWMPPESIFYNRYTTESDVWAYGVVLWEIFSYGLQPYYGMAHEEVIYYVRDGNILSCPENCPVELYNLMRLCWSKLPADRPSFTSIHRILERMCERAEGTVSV

PRKAA1 (human) = PRKAA1 (human) (UniProt Q13131)
PRKCD (human) = PRKCD (human) (UniProt Q05655)
PRKCE (human) = PRKCE (human) (UniProt Q02156)
PRKD1 (human) = PRKD1 (human) (UniProt Q15139)
PRKD3 (human) = PRKD3 (human) (UniProt O94806)
PRKX (human) = PRKX (human) (UniProt P51817)
RPS6KA1 KD2 (human) = RPS6KA1 KD2 (human) (UniProt Q15418)
Chain of RPS6KA1 KD2 (human) (Q15418 whole entry, looked up): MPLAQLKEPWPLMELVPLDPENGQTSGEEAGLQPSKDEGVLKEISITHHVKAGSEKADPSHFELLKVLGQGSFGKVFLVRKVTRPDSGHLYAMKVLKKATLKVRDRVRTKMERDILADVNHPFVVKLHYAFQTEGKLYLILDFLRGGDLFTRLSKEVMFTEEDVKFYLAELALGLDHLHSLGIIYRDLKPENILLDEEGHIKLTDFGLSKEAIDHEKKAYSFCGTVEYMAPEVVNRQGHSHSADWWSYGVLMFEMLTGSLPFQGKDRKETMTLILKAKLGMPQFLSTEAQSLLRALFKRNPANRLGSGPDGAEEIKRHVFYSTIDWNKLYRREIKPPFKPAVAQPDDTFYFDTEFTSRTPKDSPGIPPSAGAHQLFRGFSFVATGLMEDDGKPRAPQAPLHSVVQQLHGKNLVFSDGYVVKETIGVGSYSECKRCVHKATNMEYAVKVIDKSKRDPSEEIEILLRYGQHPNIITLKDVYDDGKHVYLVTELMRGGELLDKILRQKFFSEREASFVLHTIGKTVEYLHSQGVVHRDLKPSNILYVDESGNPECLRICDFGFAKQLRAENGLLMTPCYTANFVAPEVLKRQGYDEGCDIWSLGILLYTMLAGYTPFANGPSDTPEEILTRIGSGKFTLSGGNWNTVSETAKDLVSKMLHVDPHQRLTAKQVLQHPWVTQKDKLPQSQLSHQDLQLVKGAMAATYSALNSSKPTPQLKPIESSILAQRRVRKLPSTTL

RPS6KA4 KD2 (human) = RPS6KA4 KD2 (human) (UniProt O75676)
Chain of RPS6KA4 KD2 (human) (O75676 whole entry, looked up): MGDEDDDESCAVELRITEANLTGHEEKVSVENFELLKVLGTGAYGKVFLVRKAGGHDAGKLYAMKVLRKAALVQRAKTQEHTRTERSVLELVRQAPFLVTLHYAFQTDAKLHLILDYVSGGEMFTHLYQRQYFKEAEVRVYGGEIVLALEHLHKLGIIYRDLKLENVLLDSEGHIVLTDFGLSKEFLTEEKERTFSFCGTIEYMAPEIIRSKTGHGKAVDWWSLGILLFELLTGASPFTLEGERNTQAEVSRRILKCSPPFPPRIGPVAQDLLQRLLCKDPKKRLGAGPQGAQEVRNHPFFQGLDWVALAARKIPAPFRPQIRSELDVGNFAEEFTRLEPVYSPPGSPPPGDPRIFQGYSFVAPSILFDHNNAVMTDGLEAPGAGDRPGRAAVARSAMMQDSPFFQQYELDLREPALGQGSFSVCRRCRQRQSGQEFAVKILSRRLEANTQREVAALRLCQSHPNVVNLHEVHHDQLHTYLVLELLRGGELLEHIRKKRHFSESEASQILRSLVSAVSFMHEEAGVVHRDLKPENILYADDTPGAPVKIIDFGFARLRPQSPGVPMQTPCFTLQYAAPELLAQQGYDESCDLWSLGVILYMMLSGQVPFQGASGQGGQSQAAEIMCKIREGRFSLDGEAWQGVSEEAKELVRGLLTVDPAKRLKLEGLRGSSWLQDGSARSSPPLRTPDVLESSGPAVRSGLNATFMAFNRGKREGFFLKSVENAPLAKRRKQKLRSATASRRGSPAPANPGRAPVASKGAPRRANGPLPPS

RPS6KA5 KD2 (human) = RPS6KA5 KD2 (human) (UniProt O75582)
SRPK2 (human) = SRPK2 (human) (UniProt P78362)
STK24 (human) = STK24 (human) (UniProt Q9Y6E0)
STK33 (human) = STK33 (human) (UniProt Q9BYT3)
TIE1 (human) = TIE1 (human) (UniProt P35590)
TNK2 (human) = TNK2 (human) (UniProt Q07912)
TYRO3 (human) = TYRO3 (human) (UniProt Q06418)
WEE2 (human) = WEE2 (human) (UniProt P0C1S8)
Chain of WEE2 (human) (P0C1S8 whole entry, looked up): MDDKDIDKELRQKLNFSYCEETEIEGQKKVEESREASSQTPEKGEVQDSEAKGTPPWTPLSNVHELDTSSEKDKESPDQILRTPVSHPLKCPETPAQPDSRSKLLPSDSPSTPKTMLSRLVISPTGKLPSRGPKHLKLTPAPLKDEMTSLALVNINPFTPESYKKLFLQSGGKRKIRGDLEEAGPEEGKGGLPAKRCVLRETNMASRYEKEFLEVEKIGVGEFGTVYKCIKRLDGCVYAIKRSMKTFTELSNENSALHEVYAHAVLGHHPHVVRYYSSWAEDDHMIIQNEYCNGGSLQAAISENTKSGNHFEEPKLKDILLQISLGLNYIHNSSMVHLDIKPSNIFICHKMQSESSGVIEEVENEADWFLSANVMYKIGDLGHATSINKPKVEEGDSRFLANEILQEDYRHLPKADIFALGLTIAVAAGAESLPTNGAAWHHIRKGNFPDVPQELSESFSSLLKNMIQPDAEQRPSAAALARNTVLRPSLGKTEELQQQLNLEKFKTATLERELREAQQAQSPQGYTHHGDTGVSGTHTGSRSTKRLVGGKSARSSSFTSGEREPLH

Chain of ACVR2B (human) (Q13705 whole entry, looked up): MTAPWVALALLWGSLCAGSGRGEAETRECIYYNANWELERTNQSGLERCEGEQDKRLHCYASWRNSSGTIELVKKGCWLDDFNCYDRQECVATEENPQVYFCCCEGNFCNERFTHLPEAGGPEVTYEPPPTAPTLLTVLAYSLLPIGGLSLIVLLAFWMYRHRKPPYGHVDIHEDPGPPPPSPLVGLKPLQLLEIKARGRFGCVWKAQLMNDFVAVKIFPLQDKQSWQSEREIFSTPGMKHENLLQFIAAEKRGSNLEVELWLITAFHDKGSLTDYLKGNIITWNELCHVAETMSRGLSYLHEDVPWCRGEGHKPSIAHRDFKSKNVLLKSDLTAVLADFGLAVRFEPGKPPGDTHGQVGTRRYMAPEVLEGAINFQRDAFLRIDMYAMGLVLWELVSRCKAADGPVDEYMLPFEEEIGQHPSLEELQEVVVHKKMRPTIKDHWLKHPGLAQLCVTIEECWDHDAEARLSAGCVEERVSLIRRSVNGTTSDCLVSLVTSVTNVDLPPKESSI

O=C1NC(=O)/C(=C/c2c[nH]c(=O)c(-c3ccc(N4CCNCC4)nc3)c2)S1
kinase still bound, per cent of control (AAK1 (human)): 2.4% | kinase still bound, per cent of control (ACVR2B (human)): 36% | kinase still bound, per cent of control (BLK (human)): 100% | kinase still bound, per cent of control (BMP2K (human)): 2% | kinase still bound, per cent of control (BMPR1B (human)): 4.8% | kinase still bound, per cent of control (BRSK2 (human)): 100% | kinase still bound, per cent of control (CAMK1G (human)): 85% | kinase still bound, per cent of control (CDC42BPG (human)): 88% | kinase still bound, per cent of control (CDK16 (human)): 70% | kinase still bound, per cent of control (CDK2 (human)): 73% | kinase still bound, per cent of control (CDK7 (human)): 5.6% | kinase still bound, per cent of control (CIT (human)): 37% | kinase still bound, per cent of control (CLK4 (human)): 15% | kinase still bound, per cent of control (DCLK3 (human)): 2% | kinase still bound, per cent of control (FGFR3 (human)): 84% | kinase still bound, per cent of control (FRK (human)): 90% | kinase still bound, per cent of control (ITK (human)): 89% | kinase still bound, per cent of control (LATS2 (human)): 100% | kinase still bound, per cent of control (LCK (human)): 100% | kinase still bound, per cent of control (MAP4K3 (human)): 53% | kinase still bound, per cent of control (MAPK3 (human)): 94% | kinase still bound, per cent of control (MAPK8 (human)): 60% | kinase still bound, per cent of control (MAPKAPK2 (human)): 100% | kinase still bound, per cent of control (MINK1 (human)): 42% | kinase still bound, per cent of control (MLTK (human)): 92% | kinase still bound, per cent of control (MUSK (human)): 97% | kinase still bound, per cent of control (PRKAA1 (human)): 59% | kinase still bound, per cent of control (PRKCD (human)): 32% | kinase still bound, per cent of control (PRKCE (human)): 56% | kinase still bound, per cent of control (PRKD1 (human)): 8.2% | kinase still bound, per cent of control (PRKD3 (human)): 13% | kinase still bound, per cent of control (PRKX (human)): 100% | kinase still bound, per cent of control (RPS6KA1 KD2 (human)): 34% | kinase still bound, per cent of control (RPS6KA4 KD2 (human)): 3.2% | kinase still bound, per cent of control (RPS6KA5 KD2 (human)): 59% | kinase still bound, per cent of control (SRPK2 (human)): 10% | kinase still bound, per cent of control (STK24 (human)): 71% | kinase still bound, per cent of control (STK33 (human)): 2.7% | kinase still bound, per cent of control (TIE1 (human)): 64% | kinase still bound, per cent of control (TNK2 (human)): 100% | kinase still bound, per cent of control (TYRO3 (human)): 100% | kinase still bound, per cent of control (WEE2 (human)): 100%

CN1CCN(c2ccc(C(=O)Nc3ncc4c(n3)N(C)c3ccccc3C(=O)N4C)cc2)CC1
kinase still bound, per cent of control (AAK1 (human)): 100% | kinase still bound, per cent of control (ACVR2B (human)): 100% | kinase still bound, per cent of control (BLK (human)): 100% | kinase still bound, per cent of control (BMP2K (human)): 100% | kinase still bound, per cent of control (BMPR1B (human)): 100% | kinase still bound, per cent of control (BRSK2 (human)): 100% | kinase still bound, per cent of control (CAMK1G (human)): 100% | kinase still bound, per cent of control (CDC42BPG (human)): 100% | kinase still bound, per cent of control (CDK16 (human)): 100% | kinase still bound, per cent of control (CDK2 (human)): 98% | kinase still bound, per cent of control (CDK7 (human)): 74% | kinase still bound, per cent of control (CIT (human)): 100% | kinase still bound, per cent of control (CLK4 (human)): 100% | kinase still bound, per cent of control (DCLK3 (human)): 100% | kinase still bound, per cent of control (FGFR3 (human)): 100% | kinase still bound, per cent of control (FRK (human)): 100% | kinase still bound, per cent of control (ITK (human)): 100% | kinase still bound, per cent of control (LATS2 (human)): 100% | kinase still bound, per cent of control (LCK (human)): 100% | kinase still bound, per cent of control (MAP4K3 (human)): 100% | kinase still bound, per cent of control (MAPK3 (human)): 100% | kinase still bound, per cent of control (MAPK8 (human)): 100% | kinase still bound, per cent of control (MAPKAPK2 (human)): 100% | kinase still bound, per cent of control (MINK1 (human)): 100% | kinase still bound, per cent of control (MLTK (human)): 100% | kinase still bound, per cent of control (MUSK (human)): 100% | kinase still bound, per cent of control (PRKAA1 (human)): 100% | kinase still bound, per cent of control (PRKCD (human)): 100% | kinase still bound, per cent of control (PRKCE (human)): 100% | kinase still bound, per cent of control (PRKD1 (human)): 100% | kinase still bound, per cent of control (PRKD3 (human)): 90% | kinase still bound, per cent of control (PRKX (human)): 86% | kinase still bound, per cent of control (RPS6KA1 KD2 (human)): 94% | kinase still bound, per cent of control (RPS6KA4 KD2 (human)): 98% | kinase still bound, per cent of control (RPS6KA5 KD2 (human)): 100% | kinase still bound, per cent of control (SRPK2 (human)): 100% | kinase still bound, per cent of control (STK24 (human)): 100% | kinase still bound, per cent of control (STK33 (human)): 100% | kinase still bound, per cent of control (TIE1 (human)): 100% | kinase still bound, per cent of control (TNK2 (human)): 92% | kinase still bound, per cent of control (TYRO3 (human)): 100% | kinase still bound, per cent of control (WEE2 (human)): 100%
